Results taken from article PMC11157103, “Exploration of morpholine-thiophene hybrid thiosemicarbazones for the treatment of ureolytic bacterial infections via targeting urease enzyme: Synthesis, biochemical screening and computational analysis” (Frontiers in Chemistry, 2024).
Like-named read-outs stand apart in the source and are kept apart here.

Tests used:
[1] = target: jack bean urease (Canavalia ensiformis, UniProt P07374); assay: biochemical; type: biochemical; conditions: for fold stronger inhibitory potential than thiourea: relative to thiourea IC50
Sequence of jack bean urease (P07374 whole entry, looked up): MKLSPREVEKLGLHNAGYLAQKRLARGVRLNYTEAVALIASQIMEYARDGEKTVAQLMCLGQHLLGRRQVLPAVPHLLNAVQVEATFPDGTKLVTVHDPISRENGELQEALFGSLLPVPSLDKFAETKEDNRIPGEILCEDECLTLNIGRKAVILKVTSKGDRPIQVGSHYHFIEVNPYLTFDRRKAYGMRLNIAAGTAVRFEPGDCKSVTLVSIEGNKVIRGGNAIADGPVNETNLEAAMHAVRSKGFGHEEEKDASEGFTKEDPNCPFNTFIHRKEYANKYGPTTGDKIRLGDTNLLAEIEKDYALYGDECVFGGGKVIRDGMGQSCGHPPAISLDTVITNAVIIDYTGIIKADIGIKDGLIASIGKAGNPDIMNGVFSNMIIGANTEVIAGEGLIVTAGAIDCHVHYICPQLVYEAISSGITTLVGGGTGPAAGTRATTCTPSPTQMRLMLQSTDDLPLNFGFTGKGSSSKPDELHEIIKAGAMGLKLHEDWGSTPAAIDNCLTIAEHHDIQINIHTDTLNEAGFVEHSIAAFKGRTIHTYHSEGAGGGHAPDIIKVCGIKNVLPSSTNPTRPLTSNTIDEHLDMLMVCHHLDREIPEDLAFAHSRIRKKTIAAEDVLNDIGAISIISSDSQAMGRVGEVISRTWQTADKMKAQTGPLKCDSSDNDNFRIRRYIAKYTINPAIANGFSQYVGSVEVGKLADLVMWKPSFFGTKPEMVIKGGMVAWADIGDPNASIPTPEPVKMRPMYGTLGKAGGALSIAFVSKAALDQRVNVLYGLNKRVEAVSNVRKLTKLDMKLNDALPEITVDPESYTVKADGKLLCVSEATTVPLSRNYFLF
Method: The indophenol method with a little modification was used to determine the urease inhibitory activity of synthetic compounds (5a-i) ([Weatherburn, 1967]; [Yaseen et al., 2016]). Thiourea was used as a standard inhibitor. The assay mixture was comprised of 40 μL of buffer (100 mmol/L urea, 0.01 mol/L K2HPO4, 1 mmol/L EDTA and 0.01 mol/L […], pH 8.2), 10 μL of jack bean urease (5 U/mL) and 10 μL of test compound (1 mM). The reaction mixture was incubated for 30 min with 10 μL urea (1 mM) at 37 °C in 96-well plate. The phenol reagent (40 μL, 1% w/v phenol, 0.005% w/v sodium nitroprusside) and alkali reagent (40 μL, 0.5% w/v NaOH, 0.1% active chloride NaOCl) were added to each well and after 10 min of incubation at 37 °C, the absorbance was measured at 630 nm using a microplate reader (Bio-Tek ELx 800™, Instruments, Inc. United States). The experiments to determine the inhibitory activity of compounds were performed in triplicates. The percentage inhibition was calculated by using the formula given below. Inhibition %=100 – Absorbance of the test compound/Absorbance of the control×100
Compounds showing >50% inhibition against urease were further evaluated for the determination of IC50 values at various concentrations (0.1, 0.3, 1, 3, 10, 30, 100, 300, 1,000 μM) against jack bean urease. The experiments were performed in triplicate. IC50 values were calculated by using the non-linear curve fitting program PRISM 5.0 (GraphPad, San Diego, California, United States) to analyze the results.

[2] = target: urease (Canavalia ensiformis, UniProt P07374); assay: Kinetics analysis (Michaelis-Menten, Lineweaver-Burk plot); type: biochemical, jack bean; conditions: urea 25-150 mM, inhibitor 0, 1.9, 3.8, 5.7 μM
Sequence of urease (P07374 whole entry, looked up): as above
Method: These experiments helped in the assessment of K m and V max values to predict the mechanism of urease inhibition by plotting reciprocal of reaction rate 1/V (y-axis) against reciprocal of substrate concentrations 1/[S] (x-axis).
The rate of enzyme inhibition was accessed across numerous concentrations of substrate (25, 50, 100, 150 mM) and compound 5g (0, 1.9, 3.8, 5.7 μM) against urease. Afterwards, the data was plotted to obtain the Lineweaver-Burk plot by using GraphPad Prism version 10.2.1.

CC(=NNC(=S)NCCN1CCOCC1)c1ccc(C)s1 [Compound 5d, 2-(1-(5-Methylthiophen-2-yl)ethylidene)-N-(2-morpholinoethyl)hydrazinecarbothioamide]
IC50 [1]: 4.6 ± 2.6 µM
fold stronger inhibitory potential than thiourea [1]: 4.8 fold
melting point: 156 to 158 °C

CC(=NNC(=S)NCCN1CCOCC1)c1cccs1 [Compound 5b, N-(2-morpholinoethyl)-2-(1-(thiophen-2-yl)ethylidene)hydrazinecarbothioamide]
IC50 [1]: 4.96 ± 3 µM
melting point: 142 to 144 °C

CC(=NNC(=S)NCCN1CCOCC1)c1ccc([N+](=O)[O-])s1 [Compound 5i, N-(2-morpholinoethyl)-2-(1-(5-nitrothiophen-2-yl)ethylidene)hydrazinecarbothioamide]
IC50 [1]: 3.9 ± 2.7 µM
melting point: 192 to 194 °C

CC(=NNC(=S)NCCN1CCOCC1)c1sccc1Cl [Compound 5e, 2-(1-(3-Chlorothiophen-2-yl)ethylidene)-N-(2-morpholinoethyl)hydrazinecarbothioamide]
IC50 [1]: 4.81 ± 1.5 µM
melting point: 116 to 118 °C

NC(N)=S [Thiourea, reference compound]
IC50 ([1]; jack bean urease, indophenol method, triplicate, read-out: Urease inhibition IC50 ± SEM): 22.31 ± 0.03 µM

CC(=NNC(=S)NCCN1CCOCC1)c1ccc(Cl)s1 [Compound 5g, 2-(1-(5-Chlorothiophen-2-yl)ethylidene)-N-(2-morpholinoethyl)hydrazinecarbothioamide]
IC50 [1]: 3.8 ± 1.9 µM
mechanism of urease inhibition [2]: uncompetitive inhibition
melting point: 148 to 150 °C

CC(=NNC(=S)NCCN1CCOCC1)c1ccc(Br)s1 [Compound 5h, 2-(1-(5-Bromothiophen-2-yl)ethylidene)-N-(2-morpholinoethyl)hydrazinecarbothioamide]
IC50 [1]: 3.98 ± 2.2 µM
melting point: 148 to 150 °C

S=C(NCCN1CCOCC1)NN=Cc1cccs1 [Compound 5a, N-(2-morpholinoethyl)-2-(thiophen-2-ylmethylene)hydrazinecarbothioamide]
IC50 [1]: 4.94 ± 2.7 µM
fold stronger inhibitory potential than thiourea [1]: 4.5 fold

CC(=NNC(=S)NCCN1CCOCC1)c1cc(C)cs1 [Compound 5c, 2-(1-(4-Methylthiophen-2-yl)ethylidene)-N-(2-morpholinoethyl)hydrazinecarbothioamide]
IC50 [1]: 4 ± 2.4 µM
melting point: 112 to 114 °C

CC(=NNC(=S)NCCN1CCOCC1)c1sccc1Br [Compound 5f, 2-(1-(3-Bromothiophen-2-yl)ethylidene)-N-(2-morpholinoethyl)hydrazinecarbothioamide]
IC50 [1]: 5.77 ± 0.7 µM
melting point: 124 to 126 °C
